Measured values: the RepoRT retention time repository (doi:10.1016/j.foodchem.2021.129757)

Legend:
Conditions in all cases: stereoisomer not certain
[1] = RP, Phenomenex Synergi Hydro-RP, 150 × 2 mm, 4 µm, 30 °C, 0.5 mL/min, estimated dead time 0.6 min; A: water + 0.1% formic acid, pH 3; B: acetonitrile + 0.1% formic acid, pH 3; gradient (min/%B) 0/5 1/5 35/45 40/100 45/100
[2] = RP, 100 × 0.5 mm, 2.7 µm, 45 °C, 0.015 mL/min, estimated dead time 0.83 min; A: water + 0.9% formic acid; B: acetonitrile + 0.9% formic acid; gradient (min/%B) 0/1 0.5/1 4/95 4.5/1 5/1
[3] = RP, Phenomenex Luna Omega Polar C18, 100 × 2.1 mm, 1.6 µm, 40 °C, 0.5 mL/min, estimated dead time 0.44 min; A: water + 0.5% formic acid; B: acetonitrile + 0.5% formic acid; gradient (min/%B) 0/5 3/50 3.1/100 5/100 5.1/5 7/5
[4] = RP, 150 × 2.1 mm, 2.6 µm, 40 °C, 0.35 mL/min, estimated dead time 0.94 min; A: water + 0.1% formic acid, pH 3; B: acetonitrile + 0.1% formic acid, pH 3; gradient (min/%B) 0/0 1/0 12.5/100 14/100 14.2/0 15/0
[5] = RP, Waters ACQUITY UPLC BEH Shield RP18, 150 × 2.1 mm, 1.7 µm, 40 °C, 0.4 mL/min, estimated dead time 0.83 min; A: water + 0.1% formic acid, pH 3; B: acetonitrile + 0.1% formic acid, pH 3; gradient (min/%B) 0/0 30/50 31/100 37/100 37.1/0
[6] = RP, 50 × 0.5 mm, 2.7 µm, 35 °C, 0.01 mL/min, estimated dead time 0.62 min; A: water + 0.1% formic acid, pH 3; B: acetonitrile + 0.1% formic acid, pH 3; gradient (min/%B) 0/5 12/95 14/95 16/5
[7] = RP, 150 × 2.1 mm, 2.6 µm, 40 °C, 0.35 mL/min, estimated dead time 0.94 min; A: water + 0.1% formic acid, pH 3; B: acetonitrile + 0.1% formic acid, pH 3; gradient (min/%B) 0/0 1/5 7/45 8.5/80 10.5/80 11/5 12/5
[8] = RP, Waters ACQUITY UPLC BEH Shield RP18, 100 × 2.1 mm, 1.7 µm, 30 °C, 0.6 mL/min, estimated dead time 0.37 min; A: water + 0.1% formic acid, pH 3; B: acetonitrile + 0.1% formic acid, pH 3; gradient (min/%B) 0/0 2/0 7/10 22/95 22.1/0 26/0
[9] = RP, Phenomenex Luna C18, 150 × 4.6 mm, 3 µm, 25 °C, 0.5 mL/min, estimated dead time 3.2 min; A: water + 0.1% formic acid, pH 3; B: acetonitrile + 0.1% formic acid, pH 3; gradient (min/%B) 0/0 30/30 35/40 50/80 52/80 60/0 65/0
[10] = RP, Agilent InfinityLab Poroshell 120 EC-C18, 100 × 3 mm, 2.7 µm, 25 °C, 0.4 mL/min, estimated dead time 1.1 min; A: water + 0.1% formic acid, pH 3; B: acetonitrile + 0.1% formic acid, pH 3; gradient (min/%B) 0/5 10/25 20/40 24/90 25/90 26/5 30/5
[11] = Other, Phenomenex Kinetex PFP, 100 × 4.6 mm, 5 µm, 45 °C, 0.6 mL/min, estimated dead time 1.8 min; A: water + 0.1% trifluoroacetic acid, pH 2; B: methanol; gradient (min/%B) 0/40 20/72 21/40
[12] = RP, Waters ACQUITY UPLC BEH C18, 100 × 2.1 mm, 1.7 µm, 65 °C, 0.4 mL/min, estimated dead time 0.55 min; A: water + 0.1% formic acid, pH 3; B: 80% acetonitrile + 20% acetone + 0.1% formic acid, pH 3; gradient (min/%B) 0/0 5/100 5.5/0 6/0
[13] = RP, Agilent ZORBAX Eclipse XDB-C18, 100 × 2.1 mm, 1.8 µm, 50 °C, 0.4 mL/min, estimated dead time 0.55 min; A: water + 0.1% formic acid, pH 3; B: methanol + 0.1% formic acid, pH 3; gradient (min/%B) 0/2 10/100 14.5/100 14.51/2 16.5/2
[14] = RP, Waters ACQUITY UPLC HSS T3, 100 × 2.1 mm, 1.8 µm, 30 °C, 0.4 mL/min, estimated dead time 0.55 min; A: water + 0.1% formic acid, pH 3; B: acetonitrile + 0.1% formic acid, pH 3; gradient (min/%B) 0/0 2/0 15/100 22/100 22.1/0 26/0
[15] = RP, Phenomenex Luna Omega Polar C18, 100 × 2.1 mm, 1.6 µm, 40 °C, 0.5 mL/min, estimated dead time 0.44 min; A: water + 0.1% formic acid + 10 mM ammonium formate; B: acetonitrile; gradient (min/%B) 0/5 8/20 10/100 12/100 12.1/5 14/5
[16] = RP, Merck LiChrospher RP-18, 250 × 4 mm, 5 µm, 35 °C, 0.3 mL/min, estimated dead time 6.7 min; A: water + 0.5% formic acid; B: acetonitrile + 0.5% formic acid; gradient (min/%B) 0/5 10/5 30/15 45/20 65/20 95/54 110/63 115/5 135/5
[17] = RP, Agilent ZORBAX RRHD Eclipse Plus C18, 50 × 2.1 mm, 1.8 µm, 30 °C, 0.4 mL/min, estimated dead time 0.28 min; A: water + 0.1% formic acid, pH 3; B: acetonitrile + 0.1% formic acid, pH 3; gradient (min/%B) 0/1 5/10 8/25 9.1/99 10/99 12/1
[18] = RP, Agilent ZORBAX RRHD Eclipse Plus C18, 50 × 2.1 mm, 1.8 µm, 30 °C, 0.4 mL/min, estimated dead time 0.28 min; A: water + 0.1% formic acid, pH 3; B: acetonitrile + 0.1% formic acid, pH 3; gradient (min/%B) 0/1 5/10 8/25 9.1/99 10/99 12/99
[19] = RP, Phenomenex Synergi Hydro-RP, 250 × 2 mm, 4 µm, 25 °C, 0.2 mL/min, estimated dead time 2.5 min; A: water + 0.1% formic acid, pH 3; B: acetonitrile + 0.1% formic acid, pH 3; gradient (min/%B) 0/0.5 7/0.5 12/12.5 25/16.3 47/35 48/65 50/65 50.1/0.5
[20] = RP, Waters Atlantis T3, 100 × 2.1 mm, 3 µm, 40 °C, 0.3 mL/min, estimated dead time 0.73 min; A: water + 0.1% trifluoroacetic acid, pH 2; B: acetonitrile + 0.1% trifluoroacetic acid, pH 2; gradient (min/%B) 0/10 1/10 6/40 7/50 8/50 14/70 16/80 20/10 25/10
[21] = RP, Waters ACQUITY UPLC HSS T3, 100 × 2.1 mm, 50 °C; A: water + 0.1% formic acid, pH 3; B: 30% methanol + 70% acetonitrile + 0.1% formic acid, pH 3; gradient (min/%B) 0/5 1/8 2/15 3/40 4/70 4.5/100 5/100 6.4/100 6.6/5 6.8/5 7/5
[22] = RP, Phenomenex Kinetex EVO C18, 100 × 2.1 mm, 2.6 µm, 40 °C, 0.4 mL/min, estimated dead time 0.55 min; A: water + 0.2% formic acid; B: acetonitrile + 0.2% formic acid; gradient (min/%B) 0/5 0.5/5 7/95 8/95 8.5/5 12/5

SMILES | LC retention time [1] [min] | LC retention time [2] [min] | LC retention time [3] [min] | LC retention time [4] [min] | LC retention time [5] [min] | LC retention time [6] [min] | LC retention time [7] [min] | LC retention time [8] [min] | LC retention time [9] [min] | LC retention time [10] [min] | LC retention time [11] [min] | LC retention time [12] [min] | LC retention time [13] [min] | LC retention time [14] [min] | LC retention time [15] [min] | LC retention time [16] [min] | LC retention time [17] [min] | LC retention time [18] [min] | LC retention time [20] [min] | also measured
O=c1c(-c2ccc(O)cc2)coc2cc(O)cc(O)c12 [Genistein] | 25.7 | 3.17 | 3.49 | 7.65 | 22.9 | 6.06 | 8.03 | 16.1 | 41.5 | 16.5 | 18 | 2.84 | 6.56 | 11.5 | 9.62 |  |  |  |  | 
COc1cc(-c2oc3cc(O)cc(O)c3c(=O)c2O)ccc1O [Isorhamnetin] | 27.4 | 3.24 | 3.7 |  | 24 | 4.51 |  | 16.4 | 42.5 | 17.6 |  |  | 7.05 | 11.7 | 9.84 | 98.9 | 9.19 | 9.29 |  | 
O=c1cc(-c2ccc(O)c(O)c2)oc2cc(O)cc(O)c12 [Luteolin] | 22.6 | 2.97 | 3.57 | 7.14 | 20.2 | 5.79 | 7.52 | 15.3 | 42.1 | 17.1 | 18.6 |  | 6.42 | 10.8 | 9.48 | 91.1 |  |  | 9.3 | LC retention time [19]: 47 min; LC retention time [21]: 3.75 min
CC1OC(OC2C(Oc3cc(O)c4c(c3)OC(c3ccc(O)cc3)CC4=O)OC(CO)C(O)C2O)C(O)C(O)C1O (configuration not stated) [Naringin] | 17.3 | 2.56 |  |  | 13 | 4.65 |  | 13 | 26.7 | 10.6 | 9.02 |  | 5.22 | 9.46 | 8.96 |  |  |  | 7.79 | 
O=C(CCc1ccc(O)cc1)c1c(O)cc(O)cc1O [Phloretin] | 25.8 | 3.13 |  | 7.51 | 21.3 | 6 | 7.9 | 15.6 | 41.2 | 16.7 |  | 2.85 | 6.47 | 11.4 | 9.58 | 94.8 | 9.14 | 9.3 | 10 | LC retention time [19]: 50.6 min
O=c1c(OS(=O)(=O)O)c(-c2ccc(O)c(O)c2)oc2cc(O)cc(O)c12 [Quercetin 3-O-sulfate] | 20.2 | 2.82 | 2.93 |  | 25.5 |  |  | 19.4 | 46.2 | 12.6 | 14.7 |  | 5.84 | 10.5 | 9.25 |  | 7.73 | 8.12 |  | LC retention time [22]: 6.76 min
O=c1c(O)c(-c2ccc(OS(=O)(=O)O)c(O)c2)oc2cc(O)cc(O)c12 [Quercetin 4-O-sulfate] | 20.7 | 2.82 | 2.93 |  |  |  |  | 19.5 | 47.6 | 12.9 | 14.9 |  |  | 10.6 | 9.3 |  |  |  |  | 
COc1cc(C=O)ccc1O [Vanillin] |  | 2.71 | 2.44 |  | 7.83 | 3.51 |  | 10.1 | 21.1 | 8.04 | 6.9 | 2.03 | 4.06 | 9.32 | 5.38 | 54.7 |  |  |  | LC retention time [21]: 3.46 min
CC1OC(OC2C(O)C(OCCc3ccc(O)c(O)c3)OC(CO)C2OC(=O)C=Cc2ccc(O)c(O)c2)C(O)C(O)C1O (configuration not stated) [Verbascoside] | 15.8 | 2.44 | 2.49 |  | 12 | 4.6 |  | 12.6 | 23 | 10.2 |  |  | 4.86 | 9.05 | 8.28 |  |  |  | 7.34 | LC retention time [22]: 4.84 min
